This assay has as its system MV-4-11 cells. The assay is described as follows: Gene expression microarray analysis (Affymetrix PrimeView) and GSEA. The conditions noted are these: ProbeSet 11730252_s_at; LIST B. Also on record: RFU PODN (11730768_x_at) / Fold change /veh PODN (11730768_x_at) / RFU LINC00158 (11744669_a_at) / Fold change /veh LINC00158 (11744669_a_at) / RFU DUSP10 (11751237_a_at) / Fold change /veh DUSP10 (11751237_a_at) / RFU ID3 (11757404_x_at) / Fold change /veh ID3 (11757404_x_at) / RFU PLEKHG5 (11737974_s_at) / Fold change /veh PLEKHG5 (11737974_s_at) / RFU LRRC4B (11730491_at) / Fold change /veh LRRC4B (11730491_at) / RFU GIMAP4 (11747438_a_at) / Fold change /veh GIMAP4 (11747438_a_at) / RFU KRT8 (11758183_x_at) / Fold change /veh KRT8 (11758183_x_at) / RFU CNN1 (11734310_a_at) / Fold change /veh CNN1 (11734310_a_at) / RFU VPS37D (11726825_at) / Fold change /veh VPS37D (11726825_at) / RFU C10orf10 (11716522_x_at) / Fold change /veh C10orf10 (11716522_x_at) / RFU KIR2DL2 /// KIR2DL4 /// KIR2DL5A /// KIR2DL5B /// KIR2DS1 /// KIR2DS2 /// KIR2DS3 /// KIR2DS4 /// KIR3DL3 /// KIR3DL3 /// KIR3DS1 (11738374_at) / Fold change /veh KIR2DL2 /// KIR2DL4 /// KIR2DL5A /// KIR2DL5B /// KIR2DS1 /// KIR2DS2 /// KIR2DS3 /// KIR2DS4 /// KIR3DL3 /// KIR3DL3 /// KIR3DS1 (11738374_at) / RFU C1QL1 (11718748_at) / Fold change /veh C1QL1 (11718748_at) / RFU TMPRSS4 (11747572_a_at) / Fold change /veh TMPRSS4 (11747572_a_at) / RFU HAMP (11756126_x_at) / Fold change /veh HAMP (11756126_x_at) / RFU RNFT2 (11725882_a_at) / Fold change /veh RNFT2 (11725882_a_at) / RFU NR4A2 (11747474_a_at) / Fold change /veh NR4A2 (11747474_a_at) / RFU ABCC12 (11746883_a_at) / Fold change /veh ABCC12 (11746883_a_at) / RFU TMEM136 (11760407_x_at) / Fold change /veh TMEM136 (11760407_x_at) / RFU CLDN22 /// WWC2 (11732394_at) / Fold change /veh CLDN22 /// WWC2 (11732394_at) / RFU HLA-DPB1 (11760878_x_at) / Fold change /veh HLA-DPB1 (11760878_x_at) / RFU SPINT1 (11716480_a_at) / Fold change /veh SPINT1 (11716480_a_at) / RFU GAP43 (11754022_s_at) / Fold change /veh GAP43 (11754022_s_at) / RFU A4GNT (11735810_at) / Fold change /veh A4GNT (11735810_at) / RFU PRB3 (11715151_x_at) / Fold change /veh PRB3 (11715151_x_at) / RFU TUBB4B (11761932_at) / Fold change /veh TUBB4B (11761932_at) / RFU CAPN14 (11732068_a_at) / Fold change /veh CAPN14 (11732068_a_at) / RFU TMCC2 (11721928_a_at) / Fold change /veh TMCC2 (11721928_a_at) / RFU IRGQ (11745062_a_at) / Fold change /veh IRGQ (11745062_a_at) / RFU FAM174B (11720279_a_at) / Fold change /veh FAM174B (11720279_a_at) / RFU TMPRSS4 (11748680_a_at) / Fold change /veh TMPRSS4 (11748680_a_at) / RFU FAM212B (11763350_a_at) / Fold change /veh FAM212B (11763350_a_at) / RFU PLEKHG5 (11743358_a_at) / Fold change /veh PLEKHG5 (11743358_a_at) / RFU ZSCAN30 (11745921_a_at) / Fold change /veh ZSCAN30 (11745921_a_at) / RFU CMKLR1 (11741424_a_at) / Fold change /veh CMKLR1 (11741424_a_at) / RFU LOC101060620 /// MAPK8IP1 (11723275_at) / Fold change /veh LOC101060620 /// MAPK8IP1 (11723275_at) / RFU SPTSSB (11747773_x_at) / Fold change /veh SPTSSB (11747773_x_at) / RFU PRSS12 (11739890_at) / Fold change /veh PRSS12 (11739890_at) / RFU BIN1 (11741810_x_at) / Fold change /veh BIN1 (11741810_x_at) / RFU WNT11 (11732464_a_at) / Fold change /veh WNT11 (11732464_a_at) / RFU C10orf10 (11716521_a_at) / Fold change /veh C10orf10 (11716521_a_at) / RFU C5orf56 (11738089_at) / Fold change /veh C5orf56 (11738089_at) / RFU CYB561 (11721691_x_at) / Fold change /veh CYB561 (11721691_x_at) / RFU ANKRD19P (11752326_a_at) / Fold change /veh ANKRD19P (11752326_a_at) / RFU OR2T12 /// OR2T33 /// OR2T8 (11738714_s_at) / Fold change /veh OR2T12 /// OR2T33 /// OR2T8 (11738714_s_at) / RFU VCAN (11748164_a_at) / Fold change /veh VCAN (11748164_a_at) / RFU JSRP1 (11732532_at) / Fold change /veh JSRP1 (11732532_at) / RFU KRTAP10-11 (11738290_x_at) / Fold change /veh KRTAP10-11 (11738290_x_at) / RFU MYO3A (11730013_a_at) / Fold change /veh MYO3A (11730013_a_at) / RFU EBF3 (11725865_a_at) / Fold change /veh EBF3 (11725865_a_at) / RFU CAMK2N1 (11719241_x_at) / Fold change /veh CAMK2N1 (11719241_x_at) / RFU C5orf56 (11738088_a_at) / Fold change /veh C5orf56 (11738088_a_at) / RFU OLFML3 (11715873_a_at) / Fold change /veh OLFML3 (11715873_a_at) / RFU LOC100653217 /// NTM (11731650_a_at) / Fold change /veh LOC100653217 /// NTM (11731650_a_at) / RFU MAPK11 (11762145_a_at) / Fold change /veh MAPK11 (11762145_a_at) / RFU FIZ1 (11724087_x_at) / Fold change /veh FIZ1 (11724087_x_at) / RFU OASL (11726364_x_at) / Fold change /veh OASL (11726364_x_at) / RFU SOX15 (11748057_x_at) / Fold change /veh SOX15 (11748057_x_at) / RFU CD79A (11719716_a_at) / Fold change /veh CD79A (11719716_a_at) / RFU HIST1H1D (11736915_at) / Fold change /veh HIST1H1D (11736915_at) / RFU CASKIN2 (11723855_a_at) / Fold change /veh CASKIN2 (11723855_a_at) / RFU LOC730098 (11760151_x_at) / Fold change /veh LOC730098 (11760151_x_at) / RFU OR4N2 (11742367_at) / Fold change /veh OR4N2 (11742367_at) / RFU PRRT2 (11749266_a_at) / Fold change /veh PRRT2 (11749266_a_at) / RFU SNX32 (11753110_a_at) / Fold change /veh SNX32 (11753110_a_at) / RFU CDHR5 (11726645_a_at) / Fold change /veh CDHR5 (11726645_a_at) / RFU RCAN1 (11760418_a_at) / Fold change /veh RCAN1 (11760418_a_at) / RFU FAM167A (11723789_a_at) / Fold change /veh FAM167A (11723789_a_at) / RFU FAM26E (11764081_at) / Fold change /veh FAM26E (11764081_at) / RFU ISYNA1 (11749810_s_at) / Fold change /veh ISYNA1 (11749810_s_at) / RFU ACY1 (11761880_at) / Fold change /veh ACY1 (11761880_at) / RFU 11764098_at / Fold change /veh 11764098_at / RFU SAMD14 (11745864_x_at) / Fold change /veh SAMD14 (11745864_x_at) / RFU NPB (11741838_a_at) / Fold change /veh NPB (11741838_a_at) / RFU TMPRSS6 (11731388_a_at) / Fold change /veh TMPRSS6 (11731388_a_at) / RFU KRTAP10-2 (11738614_at) / Fold change /veh KRTAP10-2 (11738614_at) / RFU ARHGAP8 /// PRR5-ARHGAP8 (11727945_x_at) / Fold change /veh ARHGAP8 /// PRR5-ARHGAP8 (11727945_x_at) / RFU KRTAP5-7 /// NADSYN1 (11734609_at) / Fold change /veh KRTAP5-7 /// NADSYN1 (11734609_at) / RFU RASL12 (11751679_a_at) / Fold change /veh RASL12 (11751679_a_at) / RFU CDKN2B (11736163_a_at) / Fold change /veh CDKN2B (11736163_a_at) / RFU PRF1 (11729649_at) / Fold change /veh PRF1 (11729649_at) / RFU, ZNF638 /// ZNF638-IT1 / Fold change vs veh, ZNF638 /// ZNF638-IT1 / RFU, PANK3 / Fold change vs veh, PANK3 / RFU, SH3YL1 / Fold change vs veh, SH3YL1 / RFU, ZEB2 / Fold change vs veh, ZEB2 / RFU, NRIP1 / Fold change vs veh, NRIP1 / RFU, PTTG1IP / Fold change vs veh, PTTG1IP / RFU, CAPN2 / Fold change vs veh, CAPN2 / RFU, MED14 / Fold change vs veh, MED14 / RFU, SNORA58 / Fold change vs veh, SNORA58 / RFU, C1orf63 / Fold change vs veh, C1orf63 / RFU, LRRFIP1 / Fold change vs veh, LRRFIP1 / RFU, NDUFAF7 / Fold change vs veh, NDUFAF7 / RFU, SLC12A2 / Fold change vs veh, SLC12A2 / RFU, IBTK / Fold change vs veh, IBTK / RFU, ESF1 / Fold change vs veh, ESF1 / Fold change vs veh, TMEM50B / RFU, TAOK1 / Fold change vs veh, TAOK1 / RFU, ACBD3 / Fold change vs veh, ACBD3 / RFU, TMA16 / Fold change vs veh, TMA16 / RFU, RWDD3 / Fold change vs veh, RWDD3 / RFU, BCAT1 / Fold change vs veh, BCAT1 / RFU, EDEM3 / Fold change vs veh, EDEM3 / RFU, TMEM33 / Fold change vs veh, TMEM33 / RFU, WDR75 / Fold change vs veh, WDR75 / RFU, AHCTF1 / Fold change vs veh, AHCTF1 / RFU, TFRC / Fold change vs veh, TFRC / RFU, ZDHHC17 / Fold change vs veh, ZDHHC17 / RFU, NOM1 / Fold change vs veh, NOM1 / RFU, ARL8B / Fold change vs veh, ARL8B / RFU, ZBTB11 / Fold change vs veh, ZBTB11 / RFU, TAMM41 / Fold change vs veh, TAMM41 / RFU, KIAA1704 /// LOC100996395 / Fold change vs veh, KIAA1704 /// LOC100996395 / RFU, ING1 / Fold change vs veh, ING1 / RFU, TRMT61B / Fold change vs veh, TRMT61B / RFU, FUBP3 / Fold change vs veh, FUBP3 / RFU, TP53 / Fold change vs veh, TP53 / RFU, TNKS2 / Fold change vs veh, TNKS2 / RFU, ZFP14 / Fold change vs veh, ZFP14 / RFU, ACTR2 / Fold change vs veh, ACTR2 / RFU, PPP3R1 / Fold change vs veh, PPP3R1 / RFU, PIK3R1 / Fold change vs veh, PIK3R1 / RFU, HNRNPA1 / Fold change vs veh, HNRNPA1 / RFU, RNF170 / Fold change vs veh, RNF170 / RFU, ZNF28 / Fold change vs veh, ZNF28 / RFU, RNGTT / Fold change vs veh, RNGTT / RFU, OGT / Fold change vs veh, OGT / RFU, BRD1 / Fold change vs veh, BRD1 / RFU, MARS / Fold change vs veh, MARS / RFU, ZNF655 / Fold change vs veh, ZNF655 / RFU, FAHD1 / Fold change vs veh, FAHD1 / RFU, BDP1 / Fold change vs veh, BDP1 / RFU, LRRCC1 / Fold change vs veh, LRRCC1 / RFU, ARID1A / Fold change vs veh, ARID1A / RFU, ZNF146 / Fold change vs veh, ZNF146 / RFU, ZNF330 / Fold change vs veh, ZNF330 / RFU, GPN3 / Fold change vs veh, GPN3 / RFU, C9orf123 / Fold change vs veh, C9orf123 / RFU, N4BP2L2 / Fold change vs veh, N4BP2L2 / RFU, ARFIP1 / Fold change vs veh, ARFIP1 / RFU, FAM179B / Fold change vs veh, FAM179B / RFU, BCL10 / Fold change vs veh, BCL10 / RFU, UHRF1BP1L / Fold change vs veh, UHRF1BP1L / RFU, BET1 / Fold change vs veh, BET1 / RFU, CNOT2 / Fold change vs veh, CNOT2 / RFU, ZNF268 / Fold change vs veh, ZNF268 / Fold change vs veh, ZNF507 / RFU, DGCR2 / Fold change vs veh, DGCR2 / RFU, WDSUB1 / Fold change vs veh, WDSUB1 / Fold change vs veh, HSP90B1 /// MIR3652 / RFU, ADSS / Fold change vs veh, ADSS / RFU, GK / Fold change vs veh, GK / RFU, ZNF148 / Fold change vs veh, ZNF148 / RFU, TAF9 / Fold change vs veh, TAF9 / RFU, SLC1A5 / Fold change vs veh, SLC1A5 / RFU, SLMO2 / Fold change vs veh, SLMO2 / RFU, ABCC4 / Fold change vs veh, ABCC4 / RFU, LOC101060439 /// RAP1B / Fold change vs veh, LOC101060439 /// RAP1B / RFU, RFX7 / Fold change vs veh, RFX7 / RFU, GTPBP10 / Fold change vs veh, GTPBP10 / RFU, CNEP1R1 / Fold change vs veh, CNEP1R1 / RFU, BIVM-ERCC5 /// ERCC5 / Fold change vs veh, BIVM-ERCC5 /// ERCC5 / RFU, ILF3 / Fold change vs veh, ILF3 / RFU 11762660_at / Fold change /veh 11762660_at / RFU VCAN (11757783_s_at) / Fold change /veh VCAN (11757783_s_at) / RFU DDX43 (11728927_at) / Fold change /veh DDX43 (11728927_at) / RFU KRT8 (11758188_x_at) / Fold change /veh KRT8 (11758188_x_at) / RFU NKD1 (11759106_at) / Fold change /veh NKD1 (11759106_at) / RFU SRD5A1 (11742802_a_at) / Fold change /veh SRD5A1 (11742802_a_at) / RFU TPSAB1 /// TPSB2 (11721975_s_at) / Fold change /veh TPSAB1 /// TPSB2 (11721975_s_at) / RFU GSTM3 (11746129_a_at) / Fold change /veh GSTM3 (11746129_a_at) / RFU IL23R (11737362_x_at) / Fold change /veh IL23R (11737362_x_at) / RFU TMEM51 (11727254_a_at) / Fold change /veh TMEM51 (11727254_a_at) / RFU PIWIL2 (11732686_x_at) / Fold change /veh PIWIL2 (11732686_x_at) / RFU ORM1 (11744905_x_at) / Fold change /veh ORM1 (11744905_x_at) / RFU CCDC152 (11743942_at) / Fold change /veh CCDC152 (11743942_at) / RFU ECM1 (11717891_a_at) / Fold change /veh ECM1 (11717891_a_at) / RFU IL23R (11748794_a_at) / Fold change /veh IL23R (11748794_a_at) / RFU TNFAIP8L3 (11732012_x_at) / Fold change /veh TNFAIP8L3 (11732012_x_at) / RFU MBOAT4 (11741988_at) / Fold change /veh MBOAT4 (11741988_at) / RFU 11764193_at / Fold change /veh 11764193_at / RFU TMEM53 (11763286_at) / Fold change /veh TMEM53 (11763286_at) / RFU MAGEB2 (11727129_at) / Fold change /veh MAGEB2 (11727129_at) / RFU TMEM200A (11744735_a_at) / Fold change /veh TMEM200A (11744735_a_at) / RFU CCDC152 (11751479_a_at) / Fold change /veh CCDC152 (11751479_a_at) / RFU FAM211A (11726209_a_at) / Fold change /veh FAM211A (11726209_a_at) / RFU RGS16 (11746705_a_at) / Fold change /veh RGS16 (11746705_a_at) / RFU VCAN (11755009_s_at) / Fold change /veh VCAN (11755009_s_at) / RFU RHOB (11743442_s_at) / Fold change /veh RHOB (11743442_s_at) / RFU RGS16 (11720943_a_at) / Fold change /veh RGS16 (11720943_a_at) / RFU RGS16 (11720944_at) / Fold change /veh RGS16 (11720944_at) / RFU, VPS4B / Fold change vs veh, VPS4B / RFU, CREB1 / Fold change vs veh, CREB1 / RFU, DNAJC13 / Fold change vs veh, DNAJC13 / RFU, GNAQ / Fold change vs veh, GNAQ / RFU, CDK5R1 / Fold change vs veh, CDK5R1 / RFU, ZRANB3 / Fold change vs veh, ZRANB3 / RFU, CUL4A / Fold change vs veh, CUL4A / RFU, CCNY / Fold change vs veh, CCNY / RFU, UFL1 / Fold change vs veh, UFL1 / RFU, COG3 / Fold change vs veh, COG3 / RFU, DIAPH2 / Fold change vs veh, DIAPH2 / RFU, SKA2 / Fold change vs veh, SKA2 / RFU, AFF3 / Fold change vs veh, AFF3 / RFU, LMF1 / Fold change vs veh, LMF1 / RFU, IPO11 / Fold change vs veh, IPO11 / RFU, DFFB / Fold change vs veh, DFFB / RFU, FOXP1 / Fold change vs veh, FOXP1 / RFU, CARD8 / Fold change vs veh, CARD8 / RFU, STRN3 / Fold change vs veh, STRN3 / RFU, ADK / Fold change vs veh, ADK / RFU, RASSF2 / Fold change vs veh, RASSF2 / RFU, WIPF1 / Fold change vs veh, WIPF1 / RFU, LARP1B / Fold change vs veh, LARP1B / RFU, RASA1 / Fold change vs veh, RASA1 / RFU, RB1 / Fold change vs veh, RB1 / RFU, PPFIA1 / Fold change vs veh, PPFIA1 / RFU, MAT2A / Fold change vs veh, MAT2A / RFU, CCT5 / Fold change vs veh, CCT5 / RFU, WDR92 / Fold change vs veh, WDR92 / RFU, CUX1 / Fold change vs veh, CUX1 / RFU, TTC7A / Fold change vs veh, TTC7A / RFU, TMEM135 / Fold change vs veh, TMEM135 / RFU, DEPTOR / Fold change vs veh, DEPTOR / RFU, CPM / Fold change vs veh, CPM / RFU, DNAJB6 / Fold change vs veh, DNAJB6 / RFU, CACNA2D3 / Fold change vs veh, CACNA2D3 / RFU, DTX4 / Fold change vs veh, DTX4 / RFU, TFCP2 / Fold change vs veh, TFCP2 / RFU, GMCL1 /// GMCL1P1 / Fold change vs veh, GMCL1 /// GMCL1P1 / RFU, AEBP2 / Fold change vs veh, AEBP2 / RFU, SNHG1 /// SNORD22 /// SNORD25 /// SNORD26 /// SNORD27 /// SNORD28 /// SNORD29 /// SNORD31 / Fold change vs veh, SNHG1 /// SNORD22 /// SNORD25 /// SNORD26 /// SNORD27 /// SNORD28 /// SNORD29 /// SNORD31 / Fold change (Aza/veh), C12orf56 (ProbeSet 11735607_a_at) / Fold change (ACY-1035/veh), C12orf56 (ProbeSet 11735607_a_at) / Fold change (Aza/veh), FGFR1OP (ProbeSet 11751329_s_at) / Fold change (ACY-1035/veh), FGFR1OP (ProbeSet 11751329_s_at) / Fold change (Aza/veh), VPS36 (ProbeSet 11739960_a_at) / Fold change (ACY-1035/veh), VPS36 (ProbeSet 11739960_a_at) / RFU SYPL1 (11715823_x_at) / Fold change /veh SYPL1 (11715823_x_at) / RFU IGFBP7 (11715501_s_at) / Fold change /veh IGFBP7 (11715501_s_at) / RFU REEP3 (11722064_at) / Fold change /veh REEP3 (11722064_at) / RFU IGLL1 (11728026_x_at) / Fold change /veh IGLL1 (11728026_x_at): dose or concentration left out as unconfirmed. The class given is cell-based, human.

Consider `Nc1ccc(-c2cccs2)cc1NC(=O)c1ccc2c(c1)cc(C1CC1)n2CCN1CCOCC1` [ACY-1035], for which the “Fold change vs veh, AHCTF1” value stood at 0.96.
